The values that follow are results of earlier work, collected in patent US6503396B2 (priority 2000, dated 2003).

Structures are written as SMILES.

For data set [1], the system named is ovarian cancer. The conditions noted are these: ovarian cancer patients who exhibited no response to conventional anti-cancer drugs.
Data set [2] deals with breast cancer. The note with it: breast cancer patients who exhibited no response to conventional anti-cancer drugs.
Data set [3] deals with lung cancer. The note with it: lung cancer patients who exhibited no response to conventional anti-cancer drugs.

For `CC(=O)O[C@H]1C(=O)[C@@]2(C)[C@H]([C@H](OC(=O)c3ccccc3)[C@]3(O)C[C@H](OC(=O)[C@H](O)[C@@H](NC(=O)c4ccccc4)c4ccccc4)C(C)=C1C3(C)C)[C@]1(OC(C)=O)CO[C@@H]1C[C@@H]2O` [taxol], the “response rate to taxol” value in data set [1] was 30%; in data set [2], 50%; in data set [3] it was 20%.
